# According to patent US20100022521A1, “COMPOUNDS” (Hansa Metallwerke AG, priority 2005, published 2010):
# Key:
# mGluR5 = mGluR5 (UniProt P31424); assay: MGluR5 receptor binding test ([3H]-M-MPEP displacement); set-up: species or system rat; conditions: radioligand [3H]-M-MPEP (2 nM); species not given; read-out: mGlu5 Ki
# Protocol: MGluR5 Receptor Binding Tests
# Rat cerebro-cortical membrane preparation was used to determine the binding characteristics of reference compounds and novel compounds to the rat mGluR5. The A18 cell line expressing hmGluR5a (purchased from Euroscreen) was used to determine binding characteristics of the chemical compounds to the human mGluR5a receptor. As radioligand [3H]-M-MPEP (2 nM) was used. The nonspecific binding was determined in the presence of 10 μM M-MPEP.
# rat mGluR1 = target: T1, rat mGluR1 (Rattus norvegicus, UniProt P23385); assay: MGluR1 receptor binding test ([3H]R214127 displacement); conditions: rat cerebellar membrane; radioligand [3H]R214127 (3 nM); read-out: mGlu1 Ki
# T1 construct: rat cerebellar membrane preparation was used; from tissue; host or cells: rat cerebellum (membrane preparation)
# Protocol: MGluR1 Receptor Binding Test
# MGluR1 receptor binding testes were performed according to modified method of Lavreysen et al. (Mol. Pharm., 2003, 63, 1082). Based on the high homology between the human and rat mGluR1 receptors, rat cerebellar membrane preparation was used to determine the binding characteristics of reference compounds and novel compounds to the rat mGluR1. As radioligand [3H]R214127 (3 nM) was used and the nonspecific binding was determined in the presence of 1 μM of R214127.
# IC-50 values were determined from displacement curves by nonlinear regression analysis and were converted by equation method of Cheng and Prusoff (Biochem. Pharmacol., 1973, 22, 3099) to Ki values.
# T1 sequence (P23385 19-1199): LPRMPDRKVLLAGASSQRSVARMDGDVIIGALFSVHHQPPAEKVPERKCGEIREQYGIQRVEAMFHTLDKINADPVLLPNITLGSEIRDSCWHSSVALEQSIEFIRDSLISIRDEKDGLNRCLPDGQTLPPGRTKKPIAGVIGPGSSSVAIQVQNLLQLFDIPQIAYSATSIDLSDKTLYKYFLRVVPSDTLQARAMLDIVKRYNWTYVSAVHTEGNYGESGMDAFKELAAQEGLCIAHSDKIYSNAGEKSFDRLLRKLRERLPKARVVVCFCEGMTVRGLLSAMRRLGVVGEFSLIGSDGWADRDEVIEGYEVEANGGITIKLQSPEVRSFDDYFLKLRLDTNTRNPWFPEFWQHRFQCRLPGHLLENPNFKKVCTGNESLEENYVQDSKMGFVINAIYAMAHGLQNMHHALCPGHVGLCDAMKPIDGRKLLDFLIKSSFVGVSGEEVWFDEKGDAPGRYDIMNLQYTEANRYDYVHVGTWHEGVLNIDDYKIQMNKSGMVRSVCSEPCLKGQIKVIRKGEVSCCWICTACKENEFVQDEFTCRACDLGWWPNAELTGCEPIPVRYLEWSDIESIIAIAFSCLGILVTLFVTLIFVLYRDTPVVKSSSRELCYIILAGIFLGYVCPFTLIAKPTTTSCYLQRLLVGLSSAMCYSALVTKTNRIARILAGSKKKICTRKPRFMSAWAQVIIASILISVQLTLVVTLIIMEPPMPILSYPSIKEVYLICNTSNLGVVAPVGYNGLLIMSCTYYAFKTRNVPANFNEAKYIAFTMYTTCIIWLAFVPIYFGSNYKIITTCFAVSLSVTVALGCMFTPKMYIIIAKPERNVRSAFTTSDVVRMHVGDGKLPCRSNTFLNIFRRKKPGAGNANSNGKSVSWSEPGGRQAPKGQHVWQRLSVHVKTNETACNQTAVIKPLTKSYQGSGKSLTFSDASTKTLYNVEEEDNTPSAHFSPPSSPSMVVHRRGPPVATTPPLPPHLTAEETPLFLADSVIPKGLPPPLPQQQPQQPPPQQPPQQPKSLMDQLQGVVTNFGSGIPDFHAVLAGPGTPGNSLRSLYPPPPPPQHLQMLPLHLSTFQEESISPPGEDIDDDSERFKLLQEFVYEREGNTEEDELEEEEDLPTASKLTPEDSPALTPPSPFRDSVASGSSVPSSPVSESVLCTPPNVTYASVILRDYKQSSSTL
SMILES,Ki (mGluR5),Ki (rat mGluR1)
O=S(=O)(Cc1ccccc1)c1sc2ncccc2c1-c1ccc(Cl)cc1 [Compound 17],500 to 1500 nM,> 1500 nM
Cc1ccc(S(=O)(=O)c2sc3ncccc3c2-c2ccc(Cl)cc2)cc1 [Compound 4],< 500 nM,500 to 1500 nM
CC(=O)Nc1ccc(S(=O)(=O)c2sc3ncccc3c2-c2ccc(Cl)cc2)cc1 [Compound 5],> 1500 nM,> 1500 nM
O=S(=O)(c1cccc(Cl)c1)c1sc2ncccc2c1-c1ccc(Cl)cc1 [Compound 19],< 500 nM,> 1500 nM
[O-][S+](c1ccc(Cl)cc1)c1sc2ncccc2c1-c1ccc(Cl)cc1 (stereo not shown) [Compound 2],< 500 nM,< 500 nM
O=S(=O)(c1cccs1)c1sc2ncccc2c1-c1ccc(Cl)cc1 [Compound 13],500 to 1500 nM,> 1500 nM
O=S(=O)(c1ccc(-c2ccccc2)cc1)c1sc2ncccc2c1-c1ccc(Cl)cc1 [Compound 18],> 1500 nM,> 1500 nM
O=S(=O)(c1sc2ncccc2c1-c1ccc(Cl)cc1)C1CCCCC1 [Compound 16],> 1500 nM,> 1500 nM
O=S(=O)(c1ccccc1)c1sc2ncccc2c1-c1ccc(Cl)cc1 [Compound 8],< 500 nM,> 1500 nM
Cc1nc(C)c(S(=O)(=O)c2sc3ncccc3c2-c2ccc(Cl)cc2)s1 [Compound 12],500 to 1500 nM,> 1500 nM
"O=S(=O)(Nc1ccc(Cl)cc1)c1sc2ncccc2c1-c1ccc(Cl)cc1 [Compound 15, 3-(4-Chlorophenyl)-thieno[2,3-b]pyridine-2-sulfonic acid (4-chloro-phenyl)-amide]",500 to 1500 nM,> 1500 nM
"O=S(=O)(c1ccc(Cl)cc1)c1sc2ncccc2c1-c1ccc(Cl)cc1 [Compound 1, 2-(4-Chloro-benzenesulfonyl)-3-(4-chloro-phenyl)-thieno[2,3-b]pyridine]",< 500 nM,> 1500 nM

# Second part, the compound after the results:
Ki (mGluR5),Ki (rat mGluR1),SMILES
> 1500 nM,> 1500 nM,"O=S(=O)(NCc1ccc(Cl)cc1)c1sc2ncccc2c1-c1ccc(Cl)cc1 [Compound 21, 3-(4-Chlorophenyl)-thieno[2,3-b]pyridine-2-sulfonic acid 4-chloro-benzylamide]"
< 500 nM,500 to 1500 nM,O=S(=O)(c1ccc(Cl)c(Cl)c1)c1sc2ncccc2c1-c1ccc(Cl)cc1 [Compound 80]
< 500 nM,< 500 nM,N#Cc1cccc(S(=O)(=O)c2sc3ncccc3c2-c2ccccc2Cl)c1 [Compound 83]
< 500 nM,< 500 nM,N#Cc1cccc(S(=O)(=O)c2sc3ncccc3c2-c2cccc(F)c2)c1 [Compound 52]
< 500 nM,< 500 nM,Cc1ccc(-c2c(S(=O)(=O)c3cccc(C#N)c3)sc3ncccc23)cc1 [Compound 59]
< 500 nM,> 1500 nM,Cc1ccc(-c2c(S(=O)(=O)c3ccc(Cl)cc3)sc3ncccc23)cc1 [Compound 35]
< 500 nM,< 500 nM,COc1cccc(-c2c(S(=O)(=O)c3cccc(C#N)c3)sc3ncccc23)c1 [Compound 67]
< 500 nM,500 to 1500 nM,N#Cc1cc(F)cc(S(=O)(=O)c2sc3ncccc3c2-c2ccc(Cl)cc2)c1 [Compound 40]
< 500 nM,< 500 nM,"Nc1cnc2sc(S(=O)(=O)c3ccc(Cl)cc3)c(-c3ccc(Cl)cc3)c2c1 [Compound 79, 2-(4-Chloro-benzenesulfonyl)-3-(4-chloro-phenyl)-thieno[2,3-b]pyridin-5-ylamine]"
500 to 1500 nM,> 1500 nM,O=S(=O)(c1ccc(Cl)cc1Cl)c1sc2ncccc2c1-c1ccc(Cl)cc1 [Compound 33]
< 500 nM,> 1500 nM,"N#Cc1cc(F)cc(S(=O)(=O)c2sc3nc(F)ccc3c2-c2ccc(Cl)cc2)c1 [Compound 90, 2-(3-Cyano-5-fluoro-benzenesulfonyl)-3-(4-chloro-phenyl)-6-fluoro-thieno[2,3-b]pyridine]"
